{"source": "patent US20170216439A1", "about": "“OTIC FORMULATIONS FOR THE TREATMENT OF CERUMINOSIS” (Otonomy, Inc., priority 2014, published 2017)", "origin": "cited, not measured here", "key": {"[1]": {"conditions": "for efficacy against tinnitus: in vivo"}, "bacterial lesions": {"system": "bacterial lesions", "conditions": "wild-type C57BL/6 and mutant flake mice"}}, "data": [{"smiles": "CCCCCC/C=C\\CCCCCCCC(=O)O", "note": "[palmitoleic acid]", "values": [{"measurement": "inhibitory against S. aureus", "setting": "S. aureus", "result": "inhibitory"}, {"measurement": "inhibitory against S. pyogenes", "setting": "S. pyogenes", "result": "inhibitory"}]}, {"smiles": "Fc1ccc([C@@H]2CCNC[C@H]2COc2ccc3c(c2)OCO3)cc1", "note": "[paroxetine]", "values": [{"measurement": "efficacy against tinnitus", "setting": "[1]", "result": "demonstrated efficacy"}]}, {"smiles": "CCCCCCCC/C=C\\CCCCCCCC(=O)O", "note": "[oleic acid]", "values": [{"measurement": "inhibitory against S. aureus", "setting": "S. aureus", "result": "inhibitory"}, {"measurement": "inhibitory against S. pyogenes", "setting": "S. pyogenes", "result": "inhibitory"}]}, {"smiles": "CN[C@H]1CC[C@@H](c2ccc(Cl)c(Cl)c2)c2ccccc21", "note": "[sertraline]", "values": [{"measurement": "efficacy against tinnitus", "setting": "[1]", "result": "demonstrated efficacy"}]}, {"smiles": "CCN(CC)CC(=O)Nc1c(C)cccc1C", "note": "[Lidocaine]", "values": [{"measurement": "reduces or eliminates the noise associated with tinnitus, share of sufferers", "setting": "[1]; administered by IV", "result": "60-80%"}]}, {"smiles": "CCCCCC/C=C\\CCCCCCCC(=O)O", "note": "[palmitoleate]", "values": [{"measurement": "size of bacterial lesions", "setting": "bacterial lesions", "result": "decrease the size of bacterial lesions"}]}, {"smiles": "CNCCC=C1c2ccccc2CCc2ccccc21", "note": "[nortriptyline]", "values": [{"measurement": "efficacy against tinnitus", "setting": "[1]", "result": "demonstrated efficacy"}]}]}
